Measurements published in ChEMBL document CHEMBL1201862, “PubChem BioAssay data set” (2004).
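48-hour exposure; five concentrations; linearly interpolated endpoints. GI50 is the concentration that inhibits growth by half.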 Active and inactive are the calls of the source. Cut-off read from the data, not from the text of the source: active = GI50 up to about 1.1 µM and inactive = higher.

Tests used:
Assay in all cases: NCI-60 cell line screen, 48 h
[1] = test system: CAKI-1
[2] = test system: TK-10
[3] = test system: HCC 2998
[4] = test system: COLO 205
[5] = test system: OVCAR-4
[6] = test system: SK-OV-3
[7] = test system: SF-295
[8] = test system: NCI-H23
[9] = test system: 786-0
[10] = test system: HT-29
[11] = test system: SK-MEL-5
[12] = test system: HOP-62
[13] = test system: UACC-257
[14] = test system: SNB-19
[15] = test system: MDA-MB-435
[16] = test system: HCT-15
[17] = test system: SF-268
[18] = test system: M14
[19] = test system: SF-539
[20] = test system: MCF7

Structure (SMILES) | GI50 [1] | GI50 [2] | GI50 [3] | GI50 [4] | GI50 [5] | GI50 [6] | GI50 [7] | GI50 [8] | GI50 [9] | GI50 [10] | GI50 [11] | GI50 [12] | GI50 [13] | GI50 [14] | GI50 [15] | GI50 [16] [µM] | GI50 [17] | GI50 [18] | GI50 [19] | GI50 [20]
Cc1[nH]n(-c2ccccc2)c(=O)c1C(N(CCc1ccccc1)C1=NCC(C)S1)(C(F)(F)F)C(F)(F)F (stereo not given) | 13.5 µM (inactive) | 16.3 µM (inactive) | 13.4 µM (inactive) | 6.27 µM (inactive) | 10.8 µM (inactive) | 25.4 µM (inactive) | 9.02 µM (inactive) | 5.16 µM (inactive) | 13.9 µM (inactive) | 17.8 µM (inactive) | 7.71 µM (inactive) | 24.3 µM (inactive) | 16 µM (inactive) | 15.5 µM (inactive) | 10.2 µM (inactive) | 13.3 | 21.4 µM (inactive) | 11.6 µM (inactive) | 16.7 µM (inactive) | 10.7 µM (inactive)
CCCCCCc1cc2cc(-c3csc(CC#N)n3)c(=O)oc2cc1O | > 44.6 µM (inactive) | > 100 µM (inactive) | > 100 µM (inactive) | > 100 µM (inactive) | 3.45 µM (inactive) | 13.3 µM (inactive) | 36.6 µM (inactive) | 22.1 µM (inactive) | 7.62 µM (inactive) | > 100 µM (inactive) | 32.7 µM (inactive) | 34.9 µM (inactive) | > 100 µM (inactive) | 14.4 µM (inactive) | > 100 µM (inactive) | > 100 | 18.7 µM (inactive) | > 100 µM (inactive) | 5.71 µM (inactive) | > 49.4 µM (inactive)
CCOc1ccccc1/N=C\c1c2ccccc2cc2ccccc12 | 24.2 µM (inactive) | 25 µM (inactive) | 18.5 µM (inactive) | 32.3 µM (inactive) | 24.3 µM (inactive) | 22.3 µM (inactive) | 30 µM (inactive) | 17.3 µM (inactive) | 18.8 µM (inactive) | 21.6 µM (inactive) | 25.6 µM (inactive) | 26.1 µM (inactive) | 31.1 µM (inactive) | 26.4 µM (inactive) | 22.7 µM (inactive) | 24.4 | 21.2 µM (inactive) | 20.3 µM (inactive) | 23.8 µM (inactive) | 29.4 µM (inactive)
OC(C1CCCC1=N/N=C1/CCCC1C(O)(C(F)(F)Cl)C(F)(F)Cl)(C(F)(F)Cl)C(F)(F)Cl (stereo not given) | > 10 µM (inactive) | > 10 µM (inactive) | > 10 µM (inactive) | > 10 µM (inactive) | > 10 µM (inactive) | > 10 µM (inactive) | > 10 µM (inactive) | > 10 µM (inactive) | > 10 µM (inactive) | > 10 µM (inactive) | > 10 µM (inactive) | > 10 µM (inactive) | > 10 µM (inactive) | > 10 µM (inactive) | > 10 µM (inactive) | > 10 | > 10 µM (inactive) | > 10 µM (inactive) | > 10 µM (inactive) | > 10 µM (inactive)
O=C(NCCCN1CCN(CCCNC(=O)c2cc(-c3ccccc3)nc3ccccc23)CC1)c1cc(-c2ccccc2)nc2ccccc12 | 7.59 µM (inactive) | 27.3 µM (inactive) | 2.88 µM (inactive) | 8.77 µM (inactive) | 17.8 µM (inactive) | 16.4 µM (inactive) | 12.3 µM (inactive) | 37.3 µM (inactive) | 7.11 µM (inactive) | 3.63 µM (inactive) | 2.02 µM (inactive) | 16.1 µM (inactive) | 2.29 µM (inactive) | 14.1 µM (inactive) | 4.15 µM (inactive) | 19.4 | > 38.5 µM (inactive) | 2.28 µM (inactive) | 15.2 µM (inactive) | 9.53 µM (inactive)
CCOC(=O)CCC(NC(=O)OCc1ccccc1)C(=O)NNC(=O)OC(C)(C)C (stereo not given) | > 100 µM (inactive) | > 100 µM (inactive) | > 100 µM (inactive) | > 100 µM (inactive) | > 100 µM (inactive) | > 100 µM (inactive) | > 100 µM (inactive) | > 100 µM (inactive) | > 100 µM (inactive) | > 100 µM (inactive) | > 100 µM (inactive) | > 100 µM (inactive) | > 100 µM (inactive) | > 100 µM (inactive) | > 100 µM (inactive) | > 100 | > 100 µM (inactive) | > 100 µM (inactive) | > 100 µM (inactive) | > 100 µM (inactive)
CCOC(=O)Cn1nnc2ccc(Nc3nc4ccccc4nc3-c3ccccc3)cc21 | > 100 µM (inactive) | 25.4 µM (inactive) | 17.3 µM (inactive) | > 100 µM (inactive) | 68.9 µM (inactive) | 90.8 µM (inactive) | 85.5 µM (inactive) | > 100 µM (inactive) | 32.3 µM (inactive) | > 100 µM (inactive) | > 100 µM (inactive) | 48 µM (inactive) | 70.5 µM (inactive) | 70 µM (inactive) | > 100 µM (inactive) | > 100 | 65.5 µM (inactive) | 95.5 µM (inactive) | 59.6 µM (inactive) | > 100 µM (inactive)
O=C1OC(OC/C(Br)=C(/Br)COC2OC(=O)C(Cl)=C2Cl)C(Cl)=C1Cl (stereo not given) | 3.15 µM (inactive) | 13.5 µM (inactive) | 16.7 µM (inactive) | 4.29 µM (inactive) | 7.6 µM (inactive) | 26.9 µM (inactive) | 16.1 µM (inactive) | 4.21 µM (inactive) | 5.82 µM (inactive) | 4.93 µM (inactive) | 13.4 µM (inactive) | 11.7 µM (inactive) | 12.1 µM (inactive) | 18.4 µM (inactive) | 9.71 µM (inactive) | 9.29 | 9.82 µM (inactive) | 6.79 µM (inactive) | 21.8 µM (inactive) | 12.9 µM (inactive)
Cc1cc2nc(-c3c(F)cccc3F)n(Cc3c(F)cccc3F)c2cc1C | 15.2 µM (inactive) | 29.4 µM (inactive) | 9.71 µM (inactive) | 15.2 µM (inactive) | 15 µM (inactive) | 16.9 µM (inactive) | 13.4 µM (inactive) | 19.6 µM (inactive) | 17.9 µM (inactive) | 15.5 µM (inactive) | 13.6 µM (inactive) | 14.4 µM (inactive) | 16.1 µM (inactive) | 19.5 µM (inactive) | 14.7 µM (inactive) | 14.4 | 18.8 µM (inactive) | 12.2 µM (inactive) | 18.5 µM (inactive) | 15.2 µM (inactive)
Cc1nc2cc3ccccc3cc2[nH]c1=O | 38.1 µM (inactive) | 80.2 µM (inactive) | > 100 µM (inactive) | > 100 µM (inactive) | 51.1 µM (inactive) | > 100 µM (inactive) | 91.2 µM (inactive) | 89.5 µM (inactive) | 44.9 µM (inactive) | > 100 µM (inactive) | 96.2 µM (inactive) | 71.6 µM (inactive) | > 100 µM (inactive) | 92.3 µM (inactive) | > 100 µM (inactive) | 82 | 39.3 µM (inactive) | > 100 µM (inactive) | 53.2 µM (inactive) | 30.2 µM (inactive)
CC1(C)CCCCCCC2OC2CCCCCC(C)(C)C1=O (stereo not given) | 20.5 µM (inactive) | > 100 µM (inactive) | 40.6 µM (inactive) | 14.4 µM (inactive) | 46.2 µM (inactive) | 69.8 µM (inactive) | 31.2 µM (inactive) | 57.7 µM (inactive) | 39.3 µM (inactive) | 25.9 µM (inactive) | 22.3 µM (inactive) | 49.8 µM (inactive) | 30.7 µM (inactive) | > 89.3 µM (inactive) | 35.5 µM (inactive) | > 89.5 | 50.2 µM (inactive) | 32.8 µM (inactive) | > 94.8 µM (inactive) | 26.4 µM (inactive)
CC(C)=CCC[C@@H](C)C1=C(O)C(=O)C(C)=C(Nc2ccccc2)C1=O | 15.1 µM (inactive) | 29 µM (inactive) | 45.1 µM (inactive) | 22.6 µM (inactive) | 19.3 µM (inactive) | 27.6 µM (inactive) | 5.77 µM (inactive) | 24.9 µM (inactive) | 25.3 µM (inactive) | 31.3 µM (inactive) | 17.6 µM (inactive) | 11.3 µM (inactive) | 28.1 µM (inactive) | 31.4 µM (inactive) | 27.7 µM (inactive) | 7.5 | 19.8 µM (inactive) | 14.9 µM (inactive) | 26 µM (inactive) | 24.5 µM (inactive)
Oc1[nH]c(NCc2ccc(Cl)cc2)nc2ncnc1-2 | > 100 µM (inactive) | > 100 µM (inactive) | > 100 µM (inactive) | > 100 µM (inactive) | > 100 µM (inactive) | > 100 µM (inactive) | > 100 µM (inactive) | > 100 µM (inactive) | > 100 µM (inactive) | > 100 µM (inactive) | > 100 µM (inactive) | > 100 µM (inactive) | > 100 µM (inactive) | > 100 µM (inactive) | > 100 µM (inactive) | > 100 | > 100 µM (inactive) | > 100 µM (inactive) | > 100 µM (inactive) | 87.1 µM (inactive)
